# From paper PMC12851022, “Targeting the Spliceosomal Protein USP39 Through Allosteric Ligands and PROTAC‐Induced Degradation” (Angewandte Chemie (International Ed. in English), 2025)
# Key:
# USP39_T2 = target: T1, USP39_T2 (Homo sapiens, UniProt Q53GS9); assay: Isothermal titration calorimetry (ITC); type: binding
# T1 construct: USP39_T2 (ZNF domain only); made in house
# T1 sequence (Q53GS9 103-200 limits assumed): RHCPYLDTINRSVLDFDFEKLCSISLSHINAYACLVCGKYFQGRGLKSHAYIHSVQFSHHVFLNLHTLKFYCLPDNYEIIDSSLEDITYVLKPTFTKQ
# [1] = target: T2, USP39 / VHL_m ternary complex (Homo sapiens, UniProt P40337+Q53GS9, DEL91-121); assay: FRET assay of ternary complex formation in cells, VHL_m; type: cell-based; details: in the presence of MLN4924
# T2 construct: expressed in transfected cells; host or cells: HEK293T
# T2 sequence (P40337 with tags, fused parts or gaps DEL91-121, one chain of several): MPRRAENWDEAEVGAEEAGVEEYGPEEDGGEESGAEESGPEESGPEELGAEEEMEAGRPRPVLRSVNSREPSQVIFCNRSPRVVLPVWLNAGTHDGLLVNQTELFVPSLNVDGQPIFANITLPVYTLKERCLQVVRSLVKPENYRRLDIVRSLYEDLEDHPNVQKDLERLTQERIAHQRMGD
# Protocol: (§1) Figure 4 Effective and selective degradation of USP39 in cells by USP39‐PROTACs. a) Optimization of cellular degradation assay in HeLa cells transiently overexpressing USP39‑OFP (HeLa‐USP39‐OFP). […] GAPDH was used as a loading control. g) Proteasome dependence of USP39 degradation. HeLa‐WT cells were co‐treated with MG132 (0.25 µM) or DMSO control and USP39_PROTAC_V1 for 24 h ST. h) Representative immunofluorescence images of HeLa‐USP39_OFP cells treated with DMSO (NT), USP39_PROTAC_V1 (10 nM, 24 h), or USP39_PROTAC_V1 + MLN4924 (1 µM), stained for USP39 (red) and nuclei (blue). i) Quantification of USP39 degradation by fluorescence microscopy, showing DC50 values of 13 nM without MLN4924 (orange) and 204 nM with MLN4924 (blue) (MLN4924 = 5 uM). j) VHL‐dependence of PROTAC‐induced degradation. Schematic of PROTAC recruitment to VHL via hydroxyl‐proline interactions (His115, Ser111). Western blot comparing USP39 levels in VHL WT and VHL KO HeLa cells treated with USP39_PROTAC_V1. k) Fluorescence assay in HEK293T cells co‐expressing USP39‑OFP and either VHL_WT‑EGFP or VHL_m (Δ91–121). […] Comparison of untreated (NT) and USP39_PROTAC_V1–treated (10 nM, 24 h) samples. Percent spliced/unspliced (S/U) ratios are shown, reflecting USP39‐deficiency–associated splicing defects. Data represent at least four independent biological replicates. […]
# [2] = test system: 5′ splice site usage in exon 1 of ZNF414 and CRK; assay: RT-PCR analysis of alternative splicing in ZNF414 and CRK transcripts; type: cell-based, human; details: 10 nM, 24 h
# Protocol: as §1
# USP39 = target: T3, USP39 (Homo sapiens, UniProt Q53GS9); assay: USP39 degradation across four cell lines (HeLa, HEK293T, LNCap, Kelly); type: cell-based; design: endogenous in cells; host or cells: HeLa-WT; HEK293T; LNCap; Kelly; details: for Concentration at which USP39 degradation was initiated: HeLa, HEK293T, LNCap, Kelly
# T3 sequence (Q53GS9 1-565): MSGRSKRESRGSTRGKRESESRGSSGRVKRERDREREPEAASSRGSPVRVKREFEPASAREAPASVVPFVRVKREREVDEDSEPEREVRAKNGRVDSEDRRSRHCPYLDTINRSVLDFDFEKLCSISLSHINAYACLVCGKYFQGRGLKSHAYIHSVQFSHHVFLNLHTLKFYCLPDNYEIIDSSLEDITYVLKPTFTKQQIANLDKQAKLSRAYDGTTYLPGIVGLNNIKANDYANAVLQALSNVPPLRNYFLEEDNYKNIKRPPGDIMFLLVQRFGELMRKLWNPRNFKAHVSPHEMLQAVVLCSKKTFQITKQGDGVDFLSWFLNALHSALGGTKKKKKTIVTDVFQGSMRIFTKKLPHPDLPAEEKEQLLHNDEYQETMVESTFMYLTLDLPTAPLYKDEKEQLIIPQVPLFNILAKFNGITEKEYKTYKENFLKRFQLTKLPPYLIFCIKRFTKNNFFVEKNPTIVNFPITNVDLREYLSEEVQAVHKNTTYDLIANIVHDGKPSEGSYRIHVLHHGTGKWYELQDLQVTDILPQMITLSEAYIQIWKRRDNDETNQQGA
compound,measurement,setting,value
Cc1ncsc1-c1ccc(CNC(=O)C2CC(O)CN2C(=O)C(NC(=O)CCOCCOCCOCCNC(=O)c2csc(Nc3ccc(Cl)cc3)n2)C(C)(C)C)cc1 (stereo not drawn) [USP39_PROTAC_V1],Kd,USP39_T2,136 nM
same,FRET signal of ternary complex formation,[1],minimal signal
same,Cryptic 5′ splice site usage in ZNF414 and CRK,[2],reproduced these cryptic splicing events
same,Concentration above which USP39 levels recover (hook-effect),USP39,above 500 nM
same,Concentration at which USP39 degradation was initiated,USP39; 6 h of treatment,5 nM
same,Concentration at which USP39 degradation was initiated,USP39; 24 h of treatment,1 nM
